These results are taken from patent US12544395B2, “Combination compositions comprising a beta-lactamase inhibitor and uses thereof” (priority 2018, dated 2026).

A value given as a limit tells only on which side of the number the result lay.

A short description of data set [1]: Metabolic stability in intestinal S9. Type of data set: in vitro ADME, CD-1 mouse. The note with it: Mouse, test conc. 3 μM.
Data set [2] in a line: Metabolic stability in plasma. The data set is classed as in vitro ADME. To be noted: cynomolgus, Monkey, test conc. 3 μM.
Data set [3] in a line: Metabolic stability in liver S9. To be noted: Dog, test conc. 3 μM. Type of data set: in vitro ADME, beagle dog.
Data set [4] in a line: Metabolic stability in liver S9. The data set is classed as in vitro ADME. To be noted: Human, test conc. 3 μM.
The nature of data set [5]: Metabolic stability in plasma. The data set is classed as in vitro ADME, beagle dog. To be noted: Dog, test conc. 3 μM.
A short description of data set [6]: Metabolic stability in intestinal S9. Type of data set: in vitro ADME. To be noted: Human, test conc. 3 μM.
A short description of data set [7]: Metabolic stability in intestinal S9. The note with it: Monkey, test conc. 3 μM. Type of data set: in vitro ADME, cynomolgus monkey.
Data set [8] can be described thus: Metabolic stability in plasma. The data set is classed as in vitro ADME, CD-1 mouse. To be noted: CD-1, plasma; Mouse; test conc. 3 μM.
The nature of data set [9]: Metabolic stability in plasma. Type of data set: in vitro ADME. The note with it: Sprague-Dawley, Rat, test conc. 3 μM.
The nature of data set [10]: Metabolic stability in liver S9. Type of data set: in vitro ADME, CD-1 mouse. To be noted: Mouse, test conc. 3 μM.
Data set [11] is described as follows: Metabolic stability in intestinal S9. Type of data set: in vitro ADME, Sprague-Dawley rat. To be noted: Rat, test conc. 3 μM.
The nature of data set [12]: Metabolic stability in liver S9. To be noted: Rat, test conc. 3 μM. The data set is classed as in vitro ADME, Sprague-Dawley rat.
Data set [13] can be described thus: Metabolic stability in liver S9. The data set is classed as in vitro ADME, cynomolgus monkey. To be noted: Monkey, test conc. 3 μM.
Data set [14] can be described thus: Metabolic stability in intestinal S9. The data set is classed as in vitro ADME, beagle dog. The note with it: Dog, test conc. 3 μM.
The nature of data set [15]: Metabolic stability in plasma. The data set is classed as in vitro ADME. To be noted: Human, test conc. 3 μM.
Data set [16] in a line: Oral dosing formulation in Solutol HS-15:Water, solution/emulsion stability. The data set is classed as physicochemical. The method, then:
(§1) This study included dose concentrations ranging from 2-120 mg/mL.
as §1

A short description of data set [17]: Single ascending dose pharmacokinetics, Solutol HS-15:Water (10:90). The note with it: Compound 1 300 mg/kg PO, non-fasted. Type of data set: in vivo, Beagle dogs.
Protocol: The dosing formulation for Compound 1 was prepared in Solutol HS-15:Water (10:90 v/v) which provided dosing formulations of Compound 1 as a solution (homogeneous and chemically-stable up to a concentration of 30 mg/mL) and as a emulsion (physically- and chemically-stable at concentrations ranging from 31-100 mg/mL) with dose concentrations ranging from 2-60 mg/mL.
[18] abbreviates: Solutol HS-15:Water (10:90 v/v).
Setting [19] is: Solutol HS-15:Water (20:80 v/v).

Take `COCC1=C(C(=O)OC(C)OC(=O)OC(C)C)N2C(=O)[C@@H](NC(=O)/C(=N\OC)c3csc(N)n3)[C@H]2SC1` (some centres unmarked) [Cefpodoxime proxetil]: the half-life at 3 μM is 2.5 min in data set [1] (CD-1, intestinal S9); 12.4 min in data set [2]; 4.7 min in data set [3] (beagle, liver S9); 3.4 min in data set [4] (liver S9); 26.2 min in data set [5] (beagle, plasma); 35.6 min in [6] (intestinal S9). Further, the half-life at 3 μM is 16.9 min in [7] (cynomolgus, intestinal S9); 0.6 min in data set [8]; 0.8 min in data set [9]; 2.4 min in [10] (CD-1, liver S9); 7.4 min in data set [11] (Sprague-Dawley, intestinal S9); 10.2 min in data set [12] (Sprague-Dawley, liver S9). The half-life at 3 μM in [13] (cynomolgus, liver S9) was 4.3 min; in [14] (beagle, intestinal S9), greater than 120 min; in data set [15] (plasma), 4.8 min.

`CCC(=O)N[C@H]1Cc2cccc(C(=O)OCOC(=O)C(CC)CC)c2OB1O` [Compound 1, ((2-Ethylbutanoyl)oxy)methyl (R)-2-hydroxy-3-propionamido-3,4-dihydro-2H-benzo[e][1,2]oxaborinine-8-carboxylate]: the “Intestinal S9 Half-life” value was found to be 1.1 min in data set [1]; 2.9 min in data set [6]; 11.2 min in data set [7]; 3.9 min in [11]; 49.0 min in [14]. Also, the half-life at 3 μM amounted to 22 min in [2], 4.6 min in [8] and 1.6 min in data set [9]. Also, the “Liver S9 Half-life” value in data set [3] is 0.5 min; in [4], 1.0 min; in [10], 1.2 min; in [12], 2.3 min; in [13] it was 0.8 min. Moreover, the figures for the “Plasma Half-life” value in data set [5] and in data set [15] were 43.9 min and 10.7 min, respectively. Besides, the “homogeneous and chemically-stable solution up to a concentration” value in [16] (setting [18]) is on record as no more than 30 mg/mL; in [16] (setting [19]), no more than 60 mg/mL. Further, the “physically- and chemically-stable emulsion at concentrations” value in data set [16] (setting [18]) fell in the range of 31 to 100 mg/mL; in data set [16] (setting [19]), 61 to 200 mg/mL. Further, the dogs exhibiting emesis in data set [17] is recorded as 3 of 4.

What is called half-life is how long it takes for the measured level to halve. Low values mean rapid decline, high ones slow decline.
